Results published in paper PMC6479915, “Novel Benzene-Based Carbamates for AChE/BChE Inhibition: Synthesis and Ligand/Structure-Oriented SAR Study” (International Journal of Molecular Sciences, 2019).

Tests used:
BChE from equine serum = biological target: T1, BChE from equine serum (Equus caballus, UniProt P81908); assay: In vitro BChE inhibition, modified Ellman's method; format: biochemical; conditions: for SI (index selectivity) = IC50 (AChE)/IC50 (BChE): higher value = higher selectivity to BChE
T1 construct: BChE (from equine serum); purchased Sigma, St. Louis, MO, USA; host or cells: equine serum
T1 sequence (P81908 whole entry): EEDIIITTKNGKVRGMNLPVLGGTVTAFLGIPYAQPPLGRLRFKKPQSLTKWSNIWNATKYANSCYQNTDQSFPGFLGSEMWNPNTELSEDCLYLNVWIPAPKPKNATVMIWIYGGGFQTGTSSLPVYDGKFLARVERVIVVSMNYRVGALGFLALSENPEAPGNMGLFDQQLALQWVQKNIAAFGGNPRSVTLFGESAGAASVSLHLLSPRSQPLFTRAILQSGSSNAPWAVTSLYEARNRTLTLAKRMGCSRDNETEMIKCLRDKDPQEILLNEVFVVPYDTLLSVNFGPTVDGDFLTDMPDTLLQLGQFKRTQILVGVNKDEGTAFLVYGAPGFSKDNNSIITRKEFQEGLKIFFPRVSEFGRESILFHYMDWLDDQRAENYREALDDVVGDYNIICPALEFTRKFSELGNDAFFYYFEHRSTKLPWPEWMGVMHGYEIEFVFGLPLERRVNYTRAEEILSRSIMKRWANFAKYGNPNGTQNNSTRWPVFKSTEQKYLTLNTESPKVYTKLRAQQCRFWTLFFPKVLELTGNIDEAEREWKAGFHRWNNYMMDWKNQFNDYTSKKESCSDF

AChE from electric eel = biological target: T2, AChE from electric eel (Electrophorus electricus, UniProt O42275); assay: biochemical; conditions: mean ± SD, n = three experiments; 25 °C, PBS pH 7.4, substrate ATCh 40 μM
T2 construct: purchased Sigma, St. Louis, MO, USA
T2 sequence (O42275 24-633): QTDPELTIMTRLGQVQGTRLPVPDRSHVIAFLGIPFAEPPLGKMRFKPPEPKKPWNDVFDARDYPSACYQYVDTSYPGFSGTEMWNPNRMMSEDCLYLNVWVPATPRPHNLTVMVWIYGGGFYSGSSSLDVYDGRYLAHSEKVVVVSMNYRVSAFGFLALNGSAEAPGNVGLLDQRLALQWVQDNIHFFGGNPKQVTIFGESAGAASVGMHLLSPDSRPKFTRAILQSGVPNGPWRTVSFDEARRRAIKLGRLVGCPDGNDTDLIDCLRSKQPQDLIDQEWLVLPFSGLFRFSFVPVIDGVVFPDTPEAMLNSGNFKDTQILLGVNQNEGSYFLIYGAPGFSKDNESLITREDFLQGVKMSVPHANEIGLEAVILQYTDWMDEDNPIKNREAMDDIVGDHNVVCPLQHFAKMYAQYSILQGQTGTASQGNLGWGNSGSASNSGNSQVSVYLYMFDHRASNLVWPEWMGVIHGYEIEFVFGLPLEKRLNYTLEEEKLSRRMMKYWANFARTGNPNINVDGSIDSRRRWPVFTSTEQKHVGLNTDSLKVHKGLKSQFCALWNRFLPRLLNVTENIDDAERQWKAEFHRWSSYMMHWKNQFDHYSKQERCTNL

For CC(C(=O)c1ccc(Cl)c2ccccc12)N(C)C(=O)OCc1ccccc1 (stereo not drawn) [Compound 40, Benzyl (1-(4-chloronaphthalen-1-yl)-1-oxopropan-2-yl)(methyl)carbamate], the IC50 (BChE from equine serum) was 42.75 ± 0.31 µM, the “SI (index selectivity) = IC50 (AChE)/IC50 (BChE)” value (BChE from equine serum) was 2.42 and the IC50 (AChE from electric eel) was 103.3 ± 0.41 µM.
With CC(C(=O)c1ccc(Br)c2ccccc12)N(C)C(=O)OCc1ccccc1 (stereo not drawn) [Compound 41, Benzyl (1-(4-bromonaphthalen-1-yl)-1-oxopropan-2-yl)(methyl)carbamate] the IC50 (BChE from equine serum) was 236 ± 16.3 µM, the “SI (index selectivity) = IC50 (AChE)/IC50 (BChE)” value (BChE from equine serum) was 0.54 and the IC50 (AChE from electric eel) was 128.3 ± 0.88 µM.
